Data on one molecule can be found in paper PMC9977294, “A parasitic fungus employs mutated eIF4A to survive on rocaglate-synthesizing Aglaia plants” (eLife, 2023).

Structures are written as SMILES.

The subject of data set [1] is C. orbiculare eIF4A^His153Gly. Description: In planta fungal biomass on cucumber cotyledons (RT-qPCR). It is filed as in vivo, Colletotrichum orbiculare. To be noted: cucumber leaves; 1 µM aglafoline; 3 dpi; Figure 4B. The protocol:
Fungal inoculation was performed as previously described ([Hiruma and Saijo, 2016]; [Kumakura et al., 2019]) with modifications. Cucumber cotyledons were used for C. orbiculare inoculation. Seeds of cucumber, Cucumis sativus Suyo strain (Sakata Seed Corp.), were planted on a mix of equal amounts of vermiculite (VS Kakou) and Supermix A (Sakata Seed Corp.). Cucumbers were grown at 24°C under a 10 hr light/14 hr dark cycle using biotrons (NK Systems). Cotyledons were detached from seedlings of cucumbers and inoculated with C. orbiculare at 13 days post-germination. C. orbiculare strains (eIF4A^WT#1 and eIF4A^H153G#1, Supplementary file 4) were cultured on 100 ml of 3.9% PDA in a 300 ml flask at 25°C for 6 days in the dark. Conidia that appeared on the surface of PDA were suspended in 20 ml of sterilized water, filtered through cell strainers (100 µm pore size, Corning), pelleted by centrifugation at 760 × g for 5 min, and resuspended in sterilized water. The concentration of conidia was measured with disposable hemacytometers (Funakoshi) and adjusted to 10^5 conidia/ml with or without aglafoline (1 µM). […]
Relative expression levels of the C. orbiculare 60S ribosomal protein L5 gene (GenBank: Cob_v012718) ([Gan et al., 2013]) normalized to that of a cucumber cyclophilin gene (GenBank: AY942800.1) ([Liang et al., 2018]) were determined. […]

The next data set concerns C. sativus leaves. As to the kind of experiment: Morphology of cucumber leaves sprayed with aglafoline. The conditions noted are these: aglafoline 1 µM in water sprayed, 3 days. It is filed as in vivo, Cucumis sativus. As for the experimental part: Figure 4. Phenotypic comparison of the C. orbiculare eIF4A^WT and eIF4A^His153Gly strains during infection in the presence of rocaglate. (A) Workflow for monitoring the biomass of C. orbiculare eIF4A^WT or eIF4A^His153Gly strains on cucumber leaves under treatment with aglafoline. (B) Comparison of in planta fungal biomass of C. orbiculare eIF4A^WT or eIF4A^His153Gly strains with or without treatment with 1 µM aglafoline. Relative expression levels of the C. orbiculare 60 S ribosomal protein L5 gene (GenBank: Cob_v012718) normalized to that of a cucumber cyclophilin gene (GenBank: AY942800.1) were determined by RT–qPCR at 3 dpi (n = 8). The relative fungal biomasses of C. orbiculare were normalized to those of eIF4A^WT without aglafoline. Significance was calculated by Student’s t-test (two-tailed). […] Figure 4—source data 1. Files for the primary data corresponding to Figure 4B. Figure 4—figure supplement 1. Characterization of cucumber leaves treated with aglafoline. (A) C. sativus leaves were sprayed with DMSO or aglafoline (1 µM) in water and incubated for 3 days using the same method as C. orbiculare inoculation. Figure 4—figure supplement 1—source data 1. Files for the full and unedited pictures corresponding to Figure 4—figure supplement 1A. [drawing 12]

For the molecule `COC(=O)[C@H]1[C@@H](O)[C@@]2(O)c3c(OC)cc(OC)cc3O[C@@]2(c2ccc(OC)cc2)[C@@H]1c1ccccc1` [Aglafoline, methyl rocaglate], the “in planta fungal biomass” value in data set [1] is “resulted in rocaglate resistance in the fungi”. Moreover, the “morphological alteration of cucumber leaves” value in the data set with C. sativus leaves is reported as “no morphological alteration of the leaves was observed”.
